Reference: patent US20040132049A1, “Method for the detection of apoptosis” (priority 2002, published 2004)

Columns and labels:
U937 cells [1] = experiment: MTT viable cell assay after UV irradiation; assay type: cell-based, Human; details: 1 mM 3-ABA pre-treatment, MTT 48 hours after irradiation
Protocol: Because PARP-1 is involved in both repair of DNA damage and induction of apoptosis, 3-ABA can both increase apoptotic cell death (by preventing repair) or decrease it (by preventing PARP-1 cleavage), depending on conditions. Therefore, the ability of 3-ABA to inhibit cell death under the conditions used here was examined. Cells were subjected to UV irradiation with or without 1 mM 3-ABA pre-treatment. Untreated and irradiated cells were plated at 2×10^4/ml in a 96-well plate. Viable cells were assessed using the MTT (3-[4,5-dimethylthiazol-2-yl]-2,5-diphenyl tetrazolium bromide) assay (Norgaard et al., 2001) 48 hours after irradiation.

[2] = test system: nucleolin and PARP-1 proteins in U937 cells; experiment: Immunoblot of nucleolin and PARP-1 in S-100 and nuclear extracts after UV-induced apoptosis; assay type: cell-based, Human; details: UV-irradiated U937 cells, 30 minutes pre-incubation with 1 mM 3-ABA
Protocol: The concentration of extracted proteins was determined using the BioRad DC protein assay kit (BioRad; Hercules, Calif.). […] After 3 washes in PBST, the membrane was incubated with horseradish peroxidase-conjugated goat anti-mouse antibody (Santa Cruz Biotechnology) for 45 minutes at room temperature and then washed 3 times in PBST. Bound antibodies were detected using enhanced chemiluminescence detection. Equal gel loading and transfer of proteins were confirmed by staining membranes with India ink (Bates et al., 1999).
Some cells received 30 minutes pre-incubation with 1 mM 3-ABA before UV-irradiation.

[3] = test system: nucleolin and PARP-1 proteins in U937 cells; experiment: Immunoblot of nucleolin and PARP-1 in S-100 and nuclear extracts after CPT-induced apoptosis; assay type: cell-based, Human
Protocol: Cells were harvested and washed twice with cold PBS. S-100 and nuclear extracts were prepared (Coqueret and Gascan, 2000). Briefly, 100 μl of ice-cold extraction buffer B (10 mM 4-(2-Hydroxyethyl)piperazine-1-ethanesulfonic acid (HEPES; pH 7.9), 1.5 mM MgCl2, 10 mM KCl, 1 mM phenylmethylsulfonyl fluoride (PMSF), 1 μg/ml leupeptin, 1 μg/ml aprotinin) were added to the cells. After three cycles of freeze-thaw, S-100 extracts were recovered as supernatant following centrifugation at 12,000 rpm for 1 minute, and pellets containing nuclei were resuspended in 40 μl of buffer C (20 mM HEPES, pH 7.9, 1.5 mM MgCl2, 420 mM KCl, 0.2 mM EDTA, 25% glycerol, 1 mM PMSF, 1 μg/ml leupeptin, 1 μg/ml aprotinin). Following 30 minutes incubation at 4° C., insoluble material was removed by centrifugation at 12,000 rpm for 5 minutes, and nuclear extracts were collected as supernatant. Extracts were either used immediately or frozen and stored at −80° C.
The concentration of extracted proteins was determined using the BioRad DC protein assay kit (BioRad; Hercules, Calif.). Samples (10 μg) were incubated in sodium dodecyl sulfate (SDS)-loading buffer (100 mM Tris-HCl, pH 6.8, 200 mM dithiothreitol (DTT), 4% SDS, 0.2% bromophenol blue, 20% glycerol) at 65° C. for 15 minutes, and separated on 10% (for nucleolin detection) or 8% (for PARP-1) polyacrylamide-SDS gels, followed by electroblotting to polyvinylidene difluoride membranes (PVDF, BioRad). After blocking non-specific binding sites for 1 hour in 5% nonfat dried milk in PBST (0.1% polyoxyethylene(20) sorbitan monolaurate (Tween® 20) in PBS), the membrane was incubated for 1 hour at room temperature or overnight at 4° C. with primary antibody (1:1000 anti-nucleolin or anti-PARP-1; Anti-nucleolin antibody (mouse monoclonal IgG1) and anti-PARP-1 antibody (mouse monoclonal IgG2A) were from Santa Cruz Biotechnology; Santa Cruz; Calif.). After 3 washes in PBST, the membrane was incubated with horseradish peroxidase-conjugated goat anti-mouse antibody (Santa Cruz Biotechnology) for 45 minutes at room temperature and then washed 3 times in PBST. Bound antibodies were detected using enhanced chemiluminescence detection. Equal gel loading and transfer of proteins were confirmed by staining membranes with India ink (Bates et al., 1999).
To determine if the phenomena observed in Example 2 were specific to UV-irradiated cells or a general feature of apoptosis, protein changes in U937 cells treated with 10 μM CPT (prepared as in Example 1) for 24 hours were also examined. The U937 cells were cultured as in Example 2. Apoptosis-induced changes in nucleolin and PARP-1 were examined as in Example 2.

[4] = test system: nucleolin in medium of U937 cells; experiment: Immunoblot of nucleolin shed into serum-free culture medium; assay type: cell-based, Human
Protocol: The possibility that nucleolin was shed into the cell culture medium was examined by probing serum-free medium from cultures of U937 cells irradiated with UV light in the absence or presence of 3-ABA. Cell culture and treatment conditions were as in Example 2. To prepare protein from the cell culture medium, the medium was replaced with serum-free medium, and cells were irradiated. Cells were then centrifuged at 1,200 rpm for 10 minutes. Culture medium was collected from untreated and treated cells at 2 hours and 4 hours following irradiation. The medium was filtered (syringe filters with PVDF membranes, Whatman; Clifton, N.J.), and protein present in the medium was concentrated using Centricon (YM-30, Millipore, Bedford, Mass.) according the manufacturer's instructions.

nucleolin in U937 cells = experiment: Immunofluorescence staining of nucleolin in cells; assay type: cell-based, Human
Protocol: Cells were collected by centrifugation, washed twice with PBS, and placed on glass slides using a cytospinner. Samples were fixed in 4% paraformaldehyde in PBS for 15 minutes at room temperature and then permeabilized with 0.2% Triton X-100 in PBS for 10 minutes. After two washes with PBS, nonspecific antibody binding sites were blocked by 1 hour incubation at room temperature with 5% normal goat serum in PBS. After 3 washes with PBS, slides were incubated in primary antibody (1:100 anti-mAb IgG1; Santa Cruz Biotechnology) for 1 hour at room temperature then washed 3 times in PBS. Samples were incubated with Alexa-488-labeled secondary antibodies (diluted 1:500 in blocking buffer) for 1 hour at room temperature. Slides were washed 3 times in PBS, were observed using an Olympus BX60F fluorescence microscope and photographed using an Olympus DPIO camera.
Untreated, UV-irradiated, and 10 μM CPT-treated U937 cells were examined using the above staining method. Culture and treatment conditions were as in Example 2. […] Moreover, there was a dramatic redistribution of nucleolin in the apoptotic nuclei. In untreated cells, nucleolin was predominantly located in the intensely stained nucleoli (FIG. 1, panels A and D), whereas 24 hours after UV irradiation, nucleolin was distributed throughout the nucleolplasm in a speckled pattern (FIG. 1, panels B and E). […]

U937 cells [5] = experiment: DNA fragmentation (DNA ladder) assay of apoptosis; assay type: cell-based, Human; details: 10 μM CPT
Protocol: Camptothecin (CPT; Sigma Co.; St. Louis, Mo.), an anti-neoplastic topo-isomerase I (Top I) inhibitor, was dissolved in 0.5% (v/v) dimethyl sulfoxide (DMSO)/PBS as stock solutions (stored at −20° C.) and further diluted with water before use. Human U937 cells (myeloid leukemia cell line, from American Type Culture Collection (ATCC); Manassas, Va.) were grown in suspension in RPMI 1640 medium supplemented with 10% heat-inactivated (20 minutes at 65° C.) fetal bovine serum (FBS), 100 U/ml penicillin, 100 μg/ml streptomycin at 37° C. with 5% CO2. For treatment with CPT, exponentially growing U937 cells were treated with 10 μM CPT for 24 hours. For UV irradiation, cells were plated at 5×10^5 cells/ml in dishes (60 mm diameter). The cells were irradiated with UV-light by placing the plate (without a lid) directly in a Stratagene (La Jolla) UV Stratalinker and irradiating for 30 seconds at 254 nm. Some cells received 30 minutes pre-incubation with 1 mM 3-aminobenzamide (ABA); Sigma). Cells were then replaced in the incubator at 37° C. for various times. Apoptosis was observed using a DNA fragmentation assay (Facompre et al., 2001). In this assay, apoptosis is indicated by the appearance of a DNA “ladder”, which is produced by endonuclease cleavage of chromosomal DNA into nucleosomal fragments.

[6] = target: plasma membrane nucleolin (Homo sapiens, UniProt P19338); set-up: key: 1: Indicates a good plasma membrane nucleolin-binding GRO.; 2: Indicates a nucleolin control (non-plasma membrane nucleolin binding); details: superscript on GRO name in Table 2; cited from earlier work
[7] = U937 cells, 10 μM CPT for 24 hours

Sequence of plasma membrane nucleolin (P19338 whole entry): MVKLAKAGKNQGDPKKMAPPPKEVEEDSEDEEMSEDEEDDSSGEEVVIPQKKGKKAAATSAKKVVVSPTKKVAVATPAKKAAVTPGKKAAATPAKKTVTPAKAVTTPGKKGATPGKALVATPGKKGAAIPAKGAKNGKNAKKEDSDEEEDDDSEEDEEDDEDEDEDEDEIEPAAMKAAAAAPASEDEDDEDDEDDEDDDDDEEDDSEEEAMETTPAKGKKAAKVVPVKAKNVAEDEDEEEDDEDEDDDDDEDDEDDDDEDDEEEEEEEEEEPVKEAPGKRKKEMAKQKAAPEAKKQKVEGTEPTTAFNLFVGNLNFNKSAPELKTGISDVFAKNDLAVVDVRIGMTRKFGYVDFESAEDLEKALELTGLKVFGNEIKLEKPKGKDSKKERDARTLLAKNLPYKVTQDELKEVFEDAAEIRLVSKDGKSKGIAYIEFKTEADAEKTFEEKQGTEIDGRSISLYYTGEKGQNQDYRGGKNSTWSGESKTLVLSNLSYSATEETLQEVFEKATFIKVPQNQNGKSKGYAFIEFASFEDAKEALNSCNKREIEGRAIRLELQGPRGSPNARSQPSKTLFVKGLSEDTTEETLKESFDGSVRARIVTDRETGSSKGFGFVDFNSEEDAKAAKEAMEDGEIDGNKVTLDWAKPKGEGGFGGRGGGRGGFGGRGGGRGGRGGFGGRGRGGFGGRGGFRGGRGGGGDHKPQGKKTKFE

Molecule | plasma membrane nucleolin binding designation [6] | also measured
NC(=O)c1cccc(N)c1 [3-ABA, 3-aminobenzamide] | – | reduction of UV-induced cell death (U937 cells [1]): only to a small degree; PARP-1 cleavage [2]: abrogation of PARP-1 cleavage; disappearance of S-100 nucleolin [2]: drastically inhibited the disappearance of S-100 nucleolin; loss of nuclear nucleolin [2]: prevented the loss of nuclear nucleolin; protection from apoptosis-induced changes in nucleolin and PARP-1 ([3]; CPT-treated U937 cells, pre-incubation with 3-ABA): only a small degree of protection; nucleolin in medium of untreated (non-irradiated) cells ([4]; U937 cells without UV irradiation, with 3-ABA treatment): almost no nucleolin was detected; appearance of full-length nucleolin band in medium after UV irradiation ([4]; UV-irradiated U937 cells, serum-free medium, with 3-ABA): inhibited
CC[C@@]1(O)C(=O)OCc2c1cc1n(c2=O)Cc2cc3ccccc3nc2-1 [CPT, Camptothecin] | – | distribution of nucleolin in nuclei (nucleolin in U937 cells; U937 cells treated with CPT for 24 hours): the majority of nuclei exhibited a distinct pattern of staining; overall intensity of nuclear nucleolin staining (nucleolin in U937 cells; U937 cells, 10 μM CPT): decreased slightly; induction of apoptosis (DNA ladder) (U937 cells [5]): induced apoptosis; time at which DNA ladder clearly observed (U937 cells [5]): 24 h; nuclear nucleolin [3, 7]: reduced the amount of nuclear nucleolin; nucleolin in S-100 fraction [3, 7]: caused a disappearance of nucleolin from the S-100 fraction; PARP-1 cleavage ([3]; U937 cells, 10 μM CPT, after 4 hours): only partial cleavage
CRO: SEQ ID NO:18 tttcctcctc ctccttctcc tcctcctcc; nucleolin control (DNA TTTCCTCCTCCTCCTTCTCCTCCTCCTCC; listed as DNA, chemistry not given here) | CRO^2 | –
GRO15B: SEQ ID NO:8 ttgggggggg tgggt (TTGGGGGGGGTGGGT; listed as DNA, chemistry not given here) | GRO15B^2 | –
GRO26B: SEQ ID NO:10 ggtggtggtg gttgtggtgg tggtgg | GRO26B^1 | –
GRO G: SEQ ID NO:25 ggttggtgtg gttgg | GRO G^1 | –
GRO H: SEQ ID NO:26 ggggttttgg gg (DNA GGGGTTTTGGGG; listed as DNA, chemistry not given here) | GRO H^1 | –
GRO I: SEQ ID NO:27 gggttttggg (DNA GGGTTTTGGG; listed as DNA, chemistry not given here) | GRO I^1 | –
GRO J: SEQ ID NO:28 ggggttttgg ggttttgggg ttttgggg (DNA GGGGTTTTGGGGTTTTGGGGTTTTGGGG; listed as DNA, chemistry not given here) | GRO J^1 | –
GRO K: SEQ ID NO:29 ttggggttgg ggttggggtt gggg (DNA TTGGGGTTGGGGTTGGGGTTGGGG; listed as DNA, chemistry not given here) | GRO K^1 | –
GRO M: SEQ ID NO:31 ggttttggtt ttggttttgg ttttgg (DNA GGTTTTGGTTTTGGTTTTGGTTTTGG; listed as DNA, chemistry not given here) | GRO M^1 | –
GRO N: SEQ ID NO:32 tttcctcctc ctccttctcc tcctcctcc; nucleolin control (DNA TTTCCTCCTCCTCCTTCTCCTCCTCCTCC; listed as DNA, chemistry not given here) | GRO N^2 | –
GRO O: SEQ ID NO:33 cctcctcctc cttctcctcc tcctcc; nucleolin control (DNA CCTCCTCCTCCTTCTCCTCCTCCTCC; listed as DNA, chemistry not given here) | GRO O^2 | –
GRO P: SEQ ID NO:34 tggggt; nucleolin control | GRO P^2 | –
GRO Q: SEQ ID NO:35 gcatgct; nucleolin control (DNA GCATGCT; listed as DNA, chemistry not given here) | GRO Q^2 | –
GRO R: SEQ ID NO:36 gcggtttgcg g; nucleolin control (DNA GCGGTTTGCGG; listed as DNA, chemistry not given here) | GRO R^2 | –
GRO S: SEQ ID NO:37 tagg; nucleolin control (DNA TAGG; listed as DNA, chemistry not given here) | GRO S^2 | –
